According to ChEMBL document CHEMBL5579827, “Discovery of orally bioavailable phenyltetrazolium derivatives for the acute treatment and the secondary prevention of ischemic stroke” (Eur J Med Chem, 2024):

Assays:
[1] = Tmax in Sprague-Dawley rat at 10 mg/kg, po measured upto 8 hrs by LC-MS/MS analysis; assay type: ADME, organism-based; settings: Sprague-Dawley, in vivo, read-out: Tmax
[2] = system: N2a; experiment: Neuroprotective activity against OGD/R induced cell injury in mouse N2a cells assessed as cell viability at 10 uM preincubated under hypoxic condition for 2 hrs and measured after 24 hrs (reference value: 28.66 to 30.22 %); assay type: functional; settings: time 26 hrs, read-out: Activity
[3] = AUC(0 to t) in Sprague-Dawley rat at 10 mg/kg, po measured upto 8 hrs by LC-MS/MS analysis; assay type: ADME, organism-based; settings: in vivo
[4] = system: Mus musculus; experiment: Neuroprotective activity against tMCAO-reperfusion induced brain injury in SPF C57 mouse model assessed as reduction in infarct volume at 10 mg/kg, iv measured after 24 hrs; assay type: functional; set-up: scale not given: the % may be the effect or the level left
[5] = system: N2a; experiment: Neuroprotective activity against OGD/R induced cell injury in mouse N2a cells assessed as decrease in apoptotic ratio at 10 uM incubated for 24 hrs; assay type: functional; set-up: scale not given: the % may be the effect or the level left
[6] = AUC(0 to infinity) in Sprague-Dawley rat at 10 mg/kg, po measured upto 8 hrs by LC-MS/MS analysis; assay type: ADME, organism-based; settings: Sprague-Dawley, in vivo
[7] = Half-life in Sprague-Dawley rat at 10 mg/kg, po measured upto 8 hrs by LC-MS/MS analysis; assay type: ADME, organism-based; settings: Sprague-Dawley, in vivo
[8] = Cmax in Sprague-Dawley rat at 10 mg/kg, po measured upto 8 hrs by LC-MS/MS analysis; assay type: ADME, organism-based; settings: Sprague-Dawley, in vivo, read-out: Cmax

Tmax [1]	SMILES	viability at 10 µM [2]	also measured
15 min	CCCCC(O)c1ccc(F)cc1-c1nn[nH]n1 (stereo not drawn)	35.1%	AUC(0-t) at 8 h [3]: 2670 ng·h/mL
	CCCCC1OC(=O)c2ccccc21 (stereo not drawn) [RAC-3-N-BUTYLPHTHALIDE]	36.6%	Activity [4]: 25.43%; Activity [5]: 130.83%
	CCCCC(O)c1ccccc1-c1ccc[nH]1 (stereo not drawn)	38.6%	
	CCCCC(O)c1ccccc1-c1cc[nH]n1 (stereo not drawn)	39.5%	
15 min	CCCCC(O)c1ccc(Br)cc1-c1nnn(CC)n1 (stereo not drawn)	53.6%	
	CCCCC(O)c1ccc(Br)cc1-c1nnn(CCN(C)C)n1 (stereo not drawn)	44%	
15 min	CCCCC(O)c1ccccc1-c1nnn(C)n1 (stereo not drawn)	43.9%	AUC(0-inf) [6]: 71.5 ng·h/mL; half-life [7]: 433 min; AUC(0-t) at 8 h [3]: 39.9 ng·h/mL; Cmax [8]: 13.1 ng/mL
	CCCCC(O)c1ccccc1-c1cccs1 (stereo not drawn)	35.4%	
